Data on seven molecules can be found in patent publication US20250302815A1, “PROTEIN TYROSINE PHOSPHATASE TARGETING LIGANDS” (CALICO LIFE SCIENCES LLC, priority 2021, published 2025).

In experiment [1] the target is T1, PTPN2 (B16F10.4 cells) (Mus musculus, UniProt Q06180).
T1 construct: HiBiT; host or cells: B16F10.4
T1 sequence (Q06180 1-406): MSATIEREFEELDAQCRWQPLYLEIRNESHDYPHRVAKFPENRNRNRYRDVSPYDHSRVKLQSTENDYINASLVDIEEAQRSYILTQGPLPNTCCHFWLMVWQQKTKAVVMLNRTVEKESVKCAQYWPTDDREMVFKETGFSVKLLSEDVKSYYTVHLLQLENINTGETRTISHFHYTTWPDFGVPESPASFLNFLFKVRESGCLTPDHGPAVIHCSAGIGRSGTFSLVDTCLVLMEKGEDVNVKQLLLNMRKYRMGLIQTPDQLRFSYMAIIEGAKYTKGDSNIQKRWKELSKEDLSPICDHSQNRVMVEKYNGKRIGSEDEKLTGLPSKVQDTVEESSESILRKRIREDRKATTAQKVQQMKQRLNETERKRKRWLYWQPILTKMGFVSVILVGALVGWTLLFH
In words: HiBiT Degradation B16F10.4 PTPN2. The format is cell-based. Particulars: 24.0 hours.

Experiment [2] deals with T2, PTPN2 (HiBIT-PTPN2 in 293T.109 cells) (Homo sapiens, UniProt P17706).
T2 construct: expressed in transfected cells; host or cells: 293T.109 (293T WT from ATCC)
T2 sequence (P17706 1-415): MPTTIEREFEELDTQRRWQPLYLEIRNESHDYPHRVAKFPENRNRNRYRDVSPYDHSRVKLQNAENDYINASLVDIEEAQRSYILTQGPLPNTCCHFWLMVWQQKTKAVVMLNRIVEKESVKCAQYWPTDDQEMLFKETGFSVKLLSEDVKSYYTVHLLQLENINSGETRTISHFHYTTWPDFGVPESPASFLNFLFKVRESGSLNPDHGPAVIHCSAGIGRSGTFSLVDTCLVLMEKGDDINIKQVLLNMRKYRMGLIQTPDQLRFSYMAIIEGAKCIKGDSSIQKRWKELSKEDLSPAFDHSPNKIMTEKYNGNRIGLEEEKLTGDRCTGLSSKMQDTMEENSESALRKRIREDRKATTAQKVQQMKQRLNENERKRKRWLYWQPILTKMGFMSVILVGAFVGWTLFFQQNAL
Description: HiBiT Degradation 293T.109 PTPN2 (Nano-Glo HiBiT Lytic Assay). The format is cell-based. The following applies: 24.0 hours. A digest of the protocol: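 293T.109 cells with ectopic N-terminal HiBiT-tagged PTPN2 (5000/well) exposed to compounds for 24 h at 37 °C, 5% CO2; 11-point half-log titration from 10 μM top, duplicates. Remaining HiBiT-PTPN2 read as luminescence with Nano-Glo HiBiT lytic reagent, normalised to untreated cells (0%) and reagent-free wells.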

For the molecule `Cn1c(=O)n(C2CCC(=O)NC2=O)c2ccc(C3CCN(C(=O)Nc4cccc(CS(=O)(=O)N5CC[C@H](Nc6cccc(-c7sc(C(=O)O)c(OCC(=O)O)c7Cl)c6)CC5(C)C)c4)CC3F)cc21` (stereo partly drawn) [Example 170, 3-(carboxymethoxy)-4-chloro-5-[3-[[(4S)-1-[[3-[[4-[1-(2,6-dioxo-3-piperidyl)-3-methyl-2-oxo-benzimidazol-5-yl]-3-fluoro-piperidine-1-carbonyl]amino]phenyl]methylsulfonyl]-2,2-dimethyl-4-piperidyl]amino]phenyl]thiophene-2-carboxylic acid], the DC50 in experiment [1] and in experiment [2] was less than 50 nM each time.
For the molecule `CC1(C)C[C@@H](Nc2cccc(-c3sc(C(=O)O)c(OCC(=O)O)c3Cl)c2)CCN1S(=O)(=O)Cc1cccc(NC(=O)N2CCC(c3ccc4c(c3)n(CC(F)(F)F)c(=O)n4C3CCC(=O)NC3=O)CC2)c1` (stereo partly drawn) [Example 155, 3-(carboxymethoxy)-4-chloro-5-[3-[[(4S)-1-[[3-[[4-[1-(2,6-dioxo-3-piperidyl)-2-oxo-3-(2,2,2-trifluoroethyl)benzimidazol-5-yl]piperidine-1-carbonyl]amino]phenyl]-methylsulfonyl]-2,2-dimethyl-4-piperidyl]amino]phenyl]thiophene-2-carboxylic acid], the DC50 in experiment [1] and in experiment [2] was 50 to 200 nM in each case.
On to `CC1(C)C[C@@H](Nc2cccc(-c3sc(C(=O)O)c(OCC(=O)O)c3Cl)c2)CCN1S(=O)(=O)Cc1cccc(NC(=O)CN2CCC(n3c(=O)n(C4CCC(=O)NC4=O)c4ccccc43)CC2)c1` (stereo partly drawn) [Example 130, 3-(carboxymethoxy)-4-chloro-5-[3-[[(4S)-1-[[3-[[2-[4-[3-(2,6-dioxo-3-piperidyl)-2-oxo-benzimidazol-1-yl]-1-piperidyl]acetyl]amino]phenyl]methylsulfonyl]-2,2-dimethyl-4-piperidyl]amino]phenyl]thiophene-2-carboxylic acid], for which the DC50 in experiment [1] and in experiment [2] was 200 to 1000 nM throughout.
On to `CC1(C)C[C@@H](Nc2cccc(-c3sc(C(=O)O)c(OCC(=O)O)c3Cl)c2)CCN1S(=O)(=O)Cc1cccc(NC(=O)N2CCC(n3c(=O)n(C4CCC(=O)NC4=O)c4ccccc43)CC2)c1` (stereo partly drawn) [Example 124, 3-(carboxymethoxy)-4-chloro-5-[3-[[(4S)-1-[[3-[[4-[3-(2,6-dioxo-3-piperidyl)-2-oxo-benzimidazol-1-yl]piperidine-1-carbonyl]amino]phenyl]methylsulfonyl]-2,2-dimethyl-4-piperidyl]amino]phenyl]thiophene-2-carboxylic acid], for which the results for the DC50 in experiment [1] and in experiment [2] were not below 1000 nM and 200 to 1000 nM, respectively.
Turning to `C[C@H]1CN(C(=O)Nc2cccc(CS(=O)(=O)N3CC[C@H](Nc4cccc(-c5sc(C(=O)O)c(OCC(=O)O)c5Cl)c4)CC3(C)C)c2)CCN1c1ccc2c(c1)n(C)c(=O)n2C1CCC(=O)NC1=O` (some centres unmarked) [Example 210], the DC50 in experiment [1] and in experiment [2] was 50 to 200 nM each time.
With `CC1(C)C[C@@H](Nc2cccc(-c3sc(C(=O)O)c(OCC(=O)O)c3Cl)c2)CCN1S(=O)(=O)Cc1cc(NC(=O)N2CCC(c3ccc4c5c(cccc35)C(=O)N4C3CCC(=O)NC3=O)CC2)ccc1F` (stereo partly drawn) [Example 161, 3-(carboxymethoxy)-4-chloro-5-[3-[[(4S)-1-[[5-[[4-[1-(2,6-dioxo-3-piperidyl)-2-oxo-benzo[cd]indol-6-yl]piperidine-1-carbonyl]amino]-2-fluoro-phenyl]methylsulfonyl]-2,2-dimethyl-4-piperidyl]amino]phenyl]thiophene-2-carboxylic acid], the half-maximal degradation concentration (DC50) in experiment [1] is less than 50 nM; in experiment [2], 50 to 200 nM.
For the molecule `CC1(C)C[C@@H](Nc2cccc(-c3sc(C(=O)O)c(OCC(=O)O)c3Cl)c2)CCN1S(=O)(=O)Cc1cccc(NC(=O)N2CCC(c3ccc4c5c(cccc35)C(=O)N4[C@@H]3CCC(=O)NC3=O)CC2)c1` (single isomer, unassigned) [Example 187a], the half-maximal degradation concentration (DC50) in experiment [1] and in experiment [2] was less than 50 nM each time.
